Laboratory results: patent publication US9498483B2, “2,3,5-trisubstituted thiophene compounds and uses thereof” (priority 2010, dated 2016)

Tests used:
HCV polymerase = molecular target: T1, HCV polymerase (Hepatitis C virus genotype 1b, UniProt Q9WMX2); experiment: Polymerase assay of Biological Example 1 (IC50 values of Table 3); format: biochemical; settings: IC50 values of Table 3, polymerase assay of Biological Example 1; read-out: NS5B-enzyme3
T1 construct: (His)6 (C); made in house; host or cells: XL-1 cells (E. coli, by own knowledge)

[1] = test system: HCV replicon I389luc-ubi-neo/NS3-3′/ET in ET (Huh-lucubineo-ET) cells; experiment: Replicon assay (Biological Example 2), luciferase readout; format: cell-based; settings: Hepatitis C virus
Procedure, shortened: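 EC50 values come from Hill fits of % inhibition of replicon-driven firefly luciferase, relative to no-compound wells. Compounds were serially diluted (10 points, 3-fold, 0.1 nM–50 μM final, 0.5% DMSO) onto ET replicon cells and read after 48 h.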

[2] = ET cells, luciferase activity 48 hours after compound

Row | SMILES | IC50 (HCV polymerase) [nM] | IC50 [1, 2] [nM] | IC50 ([1]; between 100 nM and 5.0 uM) [nM]
1 | O=C(O)c1sc(-c2ccc(F)cc2)cc1N1C(=O)CN(S(=O)(=O)c2ccc(N3CC4CCC(C3)O4)nc2)C[C@H]1C1CCCCC1 [Compound 196, 3-{(R)-2-Cyclohexyl-4-[6-(8-oxa-3-aza-bicyclo[3.2.1]oct-3-yl)-pyridine-3-sulfonyl]-6-oxo-piperazin-1-yl}-5-(4-fluoro-phenyl)-thiophene-2-carboxylic acid] | 1 | ≤ 100 | –
2 | Cc1ccc(-c2cc(N3C(=O)CN(S(=O)(=O)c4ccc(N5CCOC[C@H]5C)nc4)C[C@H]3C3CCCCC3)c(C(=O)O)s2)cc1 [Compound 197, 3-{(R)-2-Cyclohexyl-4-[6-((R)-3-methyl-morpholin-4-yl)-pyridine-3-sulfonyl]-6-oxo-piperazin-1-yl}-5-p-tolyl-thiophene-2-carboxylic acid] | 4.6 | ≤ 100 | –
3 | Cc1ccc(-c2cc(N3C(=O)CN(S(=O)(=O)c4ccc(N5CC6CCC(C5)O6)nc4)C[C@H]3C3CCCCC3)c(C(=O)O)s2)cc1 [Compound 198, 3-{(R)-2-Cyclohexyl-4-[6-(8-oxa-3-aza-bicyclo[3.2.1]oct-3-yl)-pyridine-3-sulfonyl]-6-oxo-piperazin-1-yl}-5-p-tolyl-thiophene-2-carboxylic acid] | 1 | ≤ 100 | –
4 | O=C(O)c1sc(-c2ccc(Cl)cc2)cc1N1C(=O)CN(S(=O)(=O)c2ccc(N3CCOCC3)nc2)C[C@H]1C1CCCCC1 [Compound 199, 5-(4-Chloro-phenyl)-3-[(R)-2-cyclohexyl-4-(6-morpholin-4-yl-pyridine-3-sulfonyl)-6-oxo-piperazin-1-yl]-thiophene-2-carboxylic acid] | 2 | ≤ 100 | –
5 | O=C(O)c1sc(-c2ccc(Cl)cc2)cc1N1C(=O)CN(S(=O)(=O)c2ccc(N3CCCOCC3)nc2)C[C@H]1C1CCCCC1 [Compound 200, 5-(4-Chloro-phenyl)-3-[(R)-2-cyclohexyl-4-(6-[1,4]oxazepan-4-yl-pyridine-3-sulfonyl)-6-oxo-piperazin-1-yl]-thiophene-2-carboxylic acid] | 1 | ≤ 100 | –
6 | CN1CCN(C(=O)c2ccc(-c3ccc(S(=O)(=O)N4CC(=O)N(c5cc(-c6ccccc6)sc5C(=O)O)[C@H](C5CCCCC5)C4)cn3)cc2)CC1 [Compound 202, 3-((R)-2-Cyclohexyl-4-{6-[4-(4-methyl-piperazine-1-carbonyl)-phenyl]-pyridine-3-sulfonyl)-6-oxo-piperazin-1-yl)-5-phenyl-thiophene-2-carboxylic acid] | 1 | ≤ 100 | –
7 | CN(C)c1ccc(-c2ccc(S(=O)(=O)N3CC(=O)N(c4cc(-c5ccccc5)sc4C(=O)O)[C@H](C4CCCCC4)C3)cn2)cc1 [Compound 203, 3-{(R)-2-Cyclohexyl-4-[6-(4-dimethylamino-phenyl)-pyridine-3-sulfonyl]-6-oxo-piperazin-1-yl}-5-phenyl-thiophene-2-carboxylic acid] | 1 | ≤ 100 | –
8 | COc1ccncc1-c1ccc(S(=O)(=O)N2CC(=O)N(c3cc(-c4ccccc4)sc3C(=O)O)[C@H](C3CCCCC3)C2)cn1 [Compound 204, 3-[(R)-2-Cyclohexyl-4-(4′-methoxy-[2,3′]bipyridinyl-5-sulfonyl)-6-oxo-piperazin-1-yl]-5-phenyl-thiophene-2-carboxylic acid] | 2 | – | 100 to 5000
9 | O=C(O)c1sc(-c2ccccc2)cc1N1C(=O)CN(S(=O)(=O)c2ccc(-c3ccc(F)cc3F)nc2)C[C@H]1C1CCCCC1 [Compound 205, 3-{(R)-2-Cyclohexyl-4-[6-(2,4-difluoro-phenyl)-pyridine-3-sulfonyl]-6-oxo-piperazin-1-yl}-5-phenyl-thiophene-2-carboxylic acid] | 4 | – | 100 to 5000
10 | O=C(O)c1sc(-c2ccccc2)cc1N1C(=O)CN(S(=O)(=O)c2ccc(-c3cncnc3)nc2)C[C@H]1C1CCCCC1 [Compound 206, 3-[(R)-2-Cyclohexyl-6-oxo-4-(6-pyrimidin-5-yl-pyridine-3-sulfonyl)-piperazin-1-yl]-5-phenyl-thiophene-2-carboxylic acid] | 1 | – | 100 to 5000
11 | O=C(O)c1sc(-c2ccccc2)cc1N1C(=O)CN(S(=O)(=O)c2ccc(-c3ccc(CN4CCOCC4)cc3)nc2)C[C@H]1C1CCCCC1 [Compound 208, 3-{(R)-2-Cyclohexyl-4-[6-(4-morpholin-4-ylmethyl-phenyl)-pyridine-3-sulfonyl]-6-oxo-piperazin-1-yl}-5-phenyl-thiophene-2-carboxylic acid] | 1.4 | ≤ 100 | –
12 | O=C(O)c1sc(-c2ccccc2)cc1N1C(=O)CN(S(=O)(=O)c2ccc(-c3ccn[nH]3)nc2)C[C@H]1C1CCCCC1 [Compound 209, 3-{(R)-2-Cyclohexyl-6-oxo-4-[6-(2H-pyrazol-3-yl)-pyridine-3-sulfonyl]-piperazin-1-yl}-5-phenyl-thiophene-2-carboxylic acid] | 1 | – | 100 to 5000
13 | O=C(O)c1ccc(-c2ccc(S(=O)(=O)N3CC(=O)N(c4cc(-c5ccccc5)sc4C(=O)O)[C@H](C4CCCCC4)C3)cn2)s1 [Compound 210, 3-{(R)-4-[6-(5-Carboxy-thiophen-2-yl)-pyridine-3-sulfonyl]-2-cyclohexyl-6-oxo-piperazin-1-yl}-5-phenyl-thiophene-2-carboxylic acid] | 3 | ≥ 5000 | –
14 | Cc1occc1-c1ccc(S(=O)(=O)N2CC(=O)N(c3cc(-c4ccccc4)sc3C(=O)O)[C@H](C3CCCCC3)C2)cn1 [Compound 211, 3-{(R)-2-Cyclohexyl-4-[6-(2-methyl-furan-3-yl)-pyridine-3-sulfonyl]-6-oxo-piperazin-1-yl}-5-phenyl-thiophene-2-carboxylic acid] | 2 | – | 100 to 5000
15 | O=C(O)c1sc(-c2ccccc2)cc1N1C(=O)CN(S(=O)(=O)c2ccc(-c3ccc4c(c3)OCCCO4)nc2)C[C@H]1C1CCCCC1 [Compound 212, 3-{(R)-2-Cyclohexyl-4-[6-(3,4-dihydro-2H-benzo[b][1,4]dioxepin-7-yl)-pyridine-3-sulfonyl]-6-oxo-piperazin-1-yl}-5-phenyl-thiophene-2-carboxylic acid] | 2 | ≤ 100 | –
16 | N#Cc1ccccc1-c1ccc(S(=O)(=O)N2CC(=O)N(c3cc(-c4ccccc4)sc3C(=O)O)[C@H](C3CCCCC3)C2)cn1 [Compound 213, 3-{(R)-4-[6-(2-Cyano-phenyl)-pyridine-3-sulfonyl]-2-cyclohexyl-6-oxo-piperazin-1-yl}-5-phenyl-thiophene-2-carboxylic acid] | 1 | ≤ 100 | –
17 | O=C(O)c1sc(-c2ccccc2)cc1N1C(=O)CN(S(=O)(=O)c2ccc(-c3cccnc3)nc2)C[C@H]1C1CCCCC1 [Compound 214, 3-[(R)-4-([2,3′]Bipyridinyl-5-sulfonyl)-2-cyclohexyl-6-oxo-piperazin-1-yl]-5-phenyl-thiophene-2-carboxylic acid] | 1 | – | 100 to 5000
18 | O=C(O)c1sc(-c2ccccc2)cc1N1C(=O)CN(S(=O)(=O)c2ccc(C3=CCCC3)nc2)C[C@H]1C1CCCCC1 [Compound 215, 3-[(R)-2-Cyclohexyl-4-(6-cyclopent-1-enyl-pyridine-3-sulfonyl)-6-oxo-piperazin-1-yl]-5-phenyl-thiophene-2-carboxylic acid] | 2 | – | 100 to 5000
19 | O=C(O)c1sc(-c2ccccc2)cc1N1C(=O)CN(S(=O)(=O)c2ccc(N3CC4CCC(C3)O4)nc2)C[C@H]1C1CCCCC1 [Compound 216, 3-{(R)-2-Cyclohexyl-4-[6-(8-oxa-3-aza-bicyclo[3.2.1]oct-3-yl)-pyridine-3-sulfonyl]-6-oxo-piperazin-1-yl}-5-phenyl-thiophene-2-carboxylic acid] | 1 | ≤ 100 | –
20 | O=C(O)c1sc(-c2ccccc2)cc1N1C(=O)CN(S(=O)(=O)c2ccc(N3CC4CC3CO4)nc2)C[C@H]1C1CCCCC1 (stereo partly drawn) [Compound 217, 3-{(R)-2-Cyclohexyl-4-[6-(2-oxa-5-aza-bicyclo[2.2.1]hept-5-yl)-pyridine-3-sulfonyl]-6-oxo-piperazin-1-yl}-5-phenyl-thiophene-2-carboxylic acid] | 1 | ≤ 100 | –
21 | CCC1(CC)CN(c2ccc(S(=O)(=O)N3CC(=O)N(c4cc(-c5ccccc5)sc4C(=O)O)[C@H](C4CCCCC4)C3)cn2)CCO1 [Compound 218, 3-{(R)-2-Cyclohexyl-4-[6-(2,2-diethyl-morpholin-4-yl)-pyridine-3-sulfonyl]-6-oxo-piperazin-1-yl}-5-phenyl-thiophene-2-carboxylic acid] | 1 | ≤ 100 | –
22 | CC(C)(C)C#Cc1cc(N2C(=O)CCC2C2CCCCC2)c(C(=O)O)s1 (stereo not drawn) [Compound 220, 3-(2-Cyclohexyl-5-oxo-pyrrolidin-1-yl)-5-(3,3-dimethyl-but-1-ynyl)-thiophene-2-carboxylic acid] | 15 | – | 100 to 5000
23 | CC(C)S(=O)(=O)N1CC(=O)N(c2cc(C#CC(C)(C)C)sc2C(=O)O)[C@H](C2CCCCC2)C1 [Compound 221, 3-[(R)-2-Cyclohexyl-6-oxo-4-(propane-2-sulfonyl)-piperazin-1-yl]-5-(3,3-dimethyl-but-1-ynyl)-thiophene-2-carboxylic acid] | 19 | – | 100 to 5000
24 | Cn1cc(-c2ccc(S(=O)(=O)N3CC(=O)N(c4cc(-c5ccccc5)sc4C(=O)O)[C@H](C4CCCCC4)C3)cn2)cn1 [Compound 222, 3-{(R)-2-Cyclohexyl-4-[6-(1-methyl-1H-pyrazol-4-yl)-pyridine-3-sulfonyl]-6-oxo-piperazin-1-yl}-5-phenyl-thiophene-2-carboxylic acid] | 2 | ≤ 100 | –
